The values below come from patent US11173120B2, “Stable formulations of lipids and liposomes” (BioNTech RNA Pharmaceuticals GmbH, priority 2014, dated 2021).

This data set can be described thus: Stability of DOPE in DOTMA/DOPE liposomes as a function of pH (HPLC lipid recovery, 37° C.). In kind it is physicochemical. The conditions noted are these: under all conditions (pH 4-7), up to 6 weeks. The procedure:
The stability of DOPE in DOTMA/DOPE liposomes was investigated after adjusting the pH to different values between pH 7 and pH 4. For pH 7, 10 mM HEPES buffer was used. For all lower pH values, acetic acid buffers (all 10 mM) were used (see Table 1). R6 glass type I vials were filled with 2 mL of the liposomes dispersion and stored in a stability chamber at 37° C. pH values were measured by potentiometry using a WTW pH-meter inoLab pH 7310, Weilheim, Germany.
The lipid stability was tested at different time points up to 6 weeks after preparation of the liposomes by measuring the lipid concentration in the liposome preparation using a HPLC system (Agilent Technologies 1200 equipped with DAD and ELSD detectors, Santa Clara, Calif., USA).
Plotted is the normalized recovery of DOPE (in percent) from the DOTMA/DOPE liposomes. […] In contrast, at pH 5, already degradation with a recovery of only 80% of the initial value was observed.

As for `CCCCCCCC/C=C\CCCCCCCCOCC(C[N+](C)(C)C)OCCCCCCCC/C=C\CCCCCCCC` (stereo not shown) [DOTMA, 1,2-di-O-octadecenyl-3-trimethylammoniumpropane], the “degradation of DOTMA in DOTMA/DOPE liposomes” value is recorded as “no indication for degradation”.
